From US9969698B2, “Quinoxalinyl-piperazinamide methods of use” (REXAHN PHARMACEUTICALS, INC., priority 2015, dated 2018)

Assays:
WI-38 cells = assay: Western blot of cyclin D1, c-Myc and p-c-Jun; format: cell-based; details: even at 70 nM
Procedure: (§1) MDA-MB-231, SK-MEL-28, and WI-38 cells were obtained from ATCC (Manassas, Va., USA) and were cultured according to the vendor's instructions. Anti-p68 antibody and antiY593-p68 antibody were purchased from Cell Signaling (Danvers, Mass.) and Abcam (Cambridge, Mass.), respectively. Antibodies against β-actin, cyclin D1, p-c-Jun and c-Myc, were purchased from Santa Cruz (Dallas, Tex.). Anti-phospho-tyrosine antibody and HRP conjugated GAPDH antibody were obtained from Cell Signaling (Danvers, Mass.). Recombinant β-catenin and p68 protein were purchased from Creative Biomart (Shirley, N.Y.) and Origene (Rockville, Md.), respectively.
(§2) RX-5902 was dissolved in DMSO to prepare a stock solution of 2 mM. The stock solution was stored at −20° C. and diluted with medium to prepare working concentrations.
(§3) Protein mix or cell lysates were separated by SDS-PAGE and transferred to PVDF membrane. The membrane was blocked by blocking buffer (1×TBST containing 5% BSA) at room temperature for 1 hour. After a brief wash, the membrane was incubated with primary antibody in blocking buffer at 4° C. overnight. After incubation in primary antibody, the membrane was washed with 1×TBST three times and subsequently incubated with HRP conjugated secondary antibody in blocking buffer at room temperature for 1 hour. The membrane was again washed three times and visualized by ECL system (Thermo Scientific, Rockford, Ill.).
(§4) Since RX-5902 directly binds to Y593 phospho-p68, it was hypothesized that treatment of cells with RX-5902 would interfere with the phospho-p68/β-catenin interaction and consequently affect the expression of several growth associated genes, including p-c-Jun, c-Myc and cyclin D, which are regulated by phospho-p68/β-catenin interaction. Thus, cyclin D1 and c-Myc expression, as well as phosphorylation of c-Jun in cells treated with RX-5902, were analyzed. Cancer cell lines, SK-MEL-28 and MDA-MB-231, and normal fetal lung fibroblasts, WI-38, were used.

SK-MEL-28 cells = assay: Western blot of cyclin D1, c-Myc and p-c-Jun; format: cell-based
Procedure: as §1, §2, §3, §4

[1] = test system: human breast tumor xenografts (MDA-MB-231); assay: Breast cancer xenograft model; format: in vivo, mice; details: for TGI % (first value of the cell) / TGI % (second value of the cell): oral
From the text: The efficacy of RX-5902 in human cancer xenograft mouse models is examined. Female nude mice (nu/nu, Harlan or CRL: NU(NCr)-Foxn1^nu, Charles River), 9-10 weeks old, with a body weight (BW) range of 15-30 g on day 1 of the study, are fed ad libitum water (reverse osmosis, 1 ppm C1), and NIH 31 Modified and Irradiated Lab Diet® consisting of 18.0% crude protein, 5.0% crude fat, and 5.0% crude fiber. The mice are housed on irradiated Enrich-o'Cobs™ Laboratory Animal Bedding in static microisolators on a 12-hour light cycle at 20-22° C. (68-72° F.) and 40-60% humidity. The study complies with the recommendations of the Guide for, Care and Use of Laboratory Animals with respect to restraint, husbandry, surgical procedures, feed and fluid regulation, and veterinary care.
Various human tumor cell lines (e.g., HCT116, HT29, H460, H69, Caki-1, CaSki, MiaPaca2, BxPC3 and Colo 205 cells [ATCC, Manassas, Va., USA]) are cultured according to ATCC's instruction. The tumor cells are cultured in tissue culture flasks in a humidified incubator at 37° C., in an atmosphere of 5% CO2 and 95% air.
The cells are harvested during exponential growth and re-suspended with phosphate buffered saline. Each test animal receives a subcutaneous (s.c.) injection of 5×10^6 tumor cells into the right flank and tumor growth is monitored as the average tumor size approaches the target range of 80-300 mm^3. When tumors reach the target size mice are randomized into several groups (n=10-20) and treatment with various regimens of RX-5902 or a positive (e.g., gemcitabine) or negative control (e.g.; vehicle, saline) is initiated. Tumors and body weights are measured regularly until the study is terminated.
Tumors are measured in two dimensions using calipers, and volume is calculated using the formula:
[formula] where w=width and 1=length, in mm, of the tumor. Tumor weight may be estimated with the assumption that 1 mg is equivalent to 1 mm^3 of tumor volume.
Treatment begins on Day 1 in eight groups of mice (n=10-20/group) with established subcutaneous tumors of a particular cell line. Each group is treated according to the study design. All doses are adjusted per body weight. Animals in each group are divided for efficacy and sampling purposes. There are also groups designated to vehicle control and no treatment for sampling purposes.
Treatment efficacy is determined using data from Day 15. The MTV (n), the median tumor volume for the number of animals, n, on Day 15, is determined for each group. Percent tumor growth inhibition (% TGI) is defined as the difference between the MTV of the designated control group (vehicle administration) and the MTV of the drug-treated group, expressed as a percentage of the MTV of the control group: % TGI=[1−(MTVdrug treated/MTVcontrol)]×100 The data set for TGI analysis includes all animals in a group, except those that die due to treatment-related (TR) or non-treatment-related (NTR) causes. An agent that produces at least 60% TGI in this assay is considered to be potentially therapeutically active.
Animals are monitored individually for tumor growth until Day 71. The study protocol specifies a tumor growth delay assay based on the median time to endpoint (TTE) in a treated group versus the control group. Each animal is euthanized for tumor progression (TP) when its tumor reaches the 2000 mm^3 volume endpoint. The time to endpoint (TTE) for each mouse is calculated with the following equation:
[formula] where b is the intercept and m is the slope of the line obtained by linear regression of a log-transformed tumor growth data set. The data set is comprised of the first observation that exceeds the study endpoint volume and the three consecutive observations that immediately precede the attainment of the endpoint volume. […] In instances in which the log-transformed calculated TTE precedes the day prior to reaching endpoint or exceeds the day of reaching tumor volume endpoint, a linear interpolation is performed to approximate TTE. […]

COc1cc(OC)cc(N2CCN(C(=O)Nc3nc4cc(F)ccc4nc3OC)CC2)c1 [RX-5902, 4-(3,5-dimethoxyphenyl)-N-(7-fluoro-3-methoxyquinoxalin-2-yl)piperazine-1-carboxamide]
cyclin D1, c-Myc expression and c-Jun phosphorylation (WI-38 cells): did not result in any significant change | cyclin D1, c-Myc and p-c-Jun protein levels (SK-MEL-28 cells; 20 nM): did not change protein levels | cyclin D1, c-Myc expression and c-Jun phosphorylation (SK-MEL-28 cells; 70 nM): decrease in expression of both cyclin D1 and c-Myc and a decrease in c-Jun phosphorylation | TGI % (first value of the cell) ([1]; 160 mg/kg QWK): 44% | TGI % (second value of the cell) ([1]; 160 mg/kg QWK): 39% | TGI % (first value of the cell) ([1]; 320 mg/kg QWK): 65% | TGI % (second value of the cell) ([1]; 320 mg/kg QWK): 82% | TGI % (first value of the cell) ([1]; 600 mg/kg QWK): 83% | TGI % (second value of the cell) ([1]; 600 mg/kg QWK): 165% | survival in treated mice ([1]; oral, 160, 320 and 600 mg/kg weekly): extending the survival
